Results reported in ChEMBL document CHEMBL3751776, “Expanding the structural diversity of diarylureas as multi-target tyrosine kinase inhibitors” (Bioorg Med Chem, 2016).

Columns and labels:
[1] = target: Epidermal growth factor receptor (Homo sapiens, UniProt P00533); assay: Inhibition of EGFR (unknown origin) incubated for 1 hr assessed as luminescence changes using ATP by ADP-Glo Kinase assay
[2] = target: Vascular endothelial growth factor receptor 2 (Homo sapiens, UniProt P35968); assay: Inhibition of KDR (unknown origin) incubated for 1 hr assessed as luminescence changes using ATP by ADP-Glo Kinase assay
Chain of Vascular endothelial growth factor receptor 2 (P35968 whole entry): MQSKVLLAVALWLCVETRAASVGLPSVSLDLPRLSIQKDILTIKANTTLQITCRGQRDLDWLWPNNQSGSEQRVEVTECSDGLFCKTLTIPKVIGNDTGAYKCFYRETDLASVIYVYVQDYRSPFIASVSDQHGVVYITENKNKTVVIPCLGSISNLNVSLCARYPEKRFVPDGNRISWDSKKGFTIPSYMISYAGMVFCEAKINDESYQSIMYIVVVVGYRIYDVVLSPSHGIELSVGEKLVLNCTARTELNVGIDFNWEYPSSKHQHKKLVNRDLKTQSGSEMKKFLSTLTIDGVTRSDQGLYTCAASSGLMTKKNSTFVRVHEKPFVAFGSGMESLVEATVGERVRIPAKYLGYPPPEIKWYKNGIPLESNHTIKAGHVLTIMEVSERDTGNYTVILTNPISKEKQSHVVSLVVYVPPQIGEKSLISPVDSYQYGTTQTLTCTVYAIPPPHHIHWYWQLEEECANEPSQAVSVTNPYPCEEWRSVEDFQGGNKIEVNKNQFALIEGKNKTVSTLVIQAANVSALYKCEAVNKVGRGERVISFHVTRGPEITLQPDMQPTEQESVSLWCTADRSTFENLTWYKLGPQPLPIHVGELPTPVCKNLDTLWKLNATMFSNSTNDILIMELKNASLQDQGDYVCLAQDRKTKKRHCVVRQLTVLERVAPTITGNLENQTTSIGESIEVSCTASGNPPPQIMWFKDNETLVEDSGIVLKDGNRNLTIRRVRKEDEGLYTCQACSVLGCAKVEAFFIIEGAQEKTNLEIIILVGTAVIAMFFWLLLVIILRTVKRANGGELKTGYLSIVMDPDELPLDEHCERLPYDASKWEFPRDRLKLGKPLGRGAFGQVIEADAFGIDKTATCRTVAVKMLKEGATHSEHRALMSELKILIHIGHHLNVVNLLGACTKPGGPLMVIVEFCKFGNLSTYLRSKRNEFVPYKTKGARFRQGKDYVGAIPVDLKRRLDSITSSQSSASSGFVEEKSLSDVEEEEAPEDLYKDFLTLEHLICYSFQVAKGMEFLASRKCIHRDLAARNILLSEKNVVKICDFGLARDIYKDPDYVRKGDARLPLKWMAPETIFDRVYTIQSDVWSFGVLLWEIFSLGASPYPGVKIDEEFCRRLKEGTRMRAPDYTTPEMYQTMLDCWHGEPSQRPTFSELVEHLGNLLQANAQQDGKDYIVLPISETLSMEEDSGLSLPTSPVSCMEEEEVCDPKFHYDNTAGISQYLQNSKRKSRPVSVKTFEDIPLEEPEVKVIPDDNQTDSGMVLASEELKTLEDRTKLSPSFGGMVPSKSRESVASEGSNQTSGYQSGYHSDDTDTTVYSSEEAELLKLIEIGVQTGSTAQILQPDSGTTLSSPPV

[3] = target: Fibroblast growth factor receptor 1 (Homo sapiens, UniProt P11362); assay: Inhibition of FGFR1 (unknown origin) incubated for 1 hr assessed as luminescence changes using ATP by ADP-Glo Kinase assay
Chain of Fibroblast growth factor receptor 1 (P11362 whole entry): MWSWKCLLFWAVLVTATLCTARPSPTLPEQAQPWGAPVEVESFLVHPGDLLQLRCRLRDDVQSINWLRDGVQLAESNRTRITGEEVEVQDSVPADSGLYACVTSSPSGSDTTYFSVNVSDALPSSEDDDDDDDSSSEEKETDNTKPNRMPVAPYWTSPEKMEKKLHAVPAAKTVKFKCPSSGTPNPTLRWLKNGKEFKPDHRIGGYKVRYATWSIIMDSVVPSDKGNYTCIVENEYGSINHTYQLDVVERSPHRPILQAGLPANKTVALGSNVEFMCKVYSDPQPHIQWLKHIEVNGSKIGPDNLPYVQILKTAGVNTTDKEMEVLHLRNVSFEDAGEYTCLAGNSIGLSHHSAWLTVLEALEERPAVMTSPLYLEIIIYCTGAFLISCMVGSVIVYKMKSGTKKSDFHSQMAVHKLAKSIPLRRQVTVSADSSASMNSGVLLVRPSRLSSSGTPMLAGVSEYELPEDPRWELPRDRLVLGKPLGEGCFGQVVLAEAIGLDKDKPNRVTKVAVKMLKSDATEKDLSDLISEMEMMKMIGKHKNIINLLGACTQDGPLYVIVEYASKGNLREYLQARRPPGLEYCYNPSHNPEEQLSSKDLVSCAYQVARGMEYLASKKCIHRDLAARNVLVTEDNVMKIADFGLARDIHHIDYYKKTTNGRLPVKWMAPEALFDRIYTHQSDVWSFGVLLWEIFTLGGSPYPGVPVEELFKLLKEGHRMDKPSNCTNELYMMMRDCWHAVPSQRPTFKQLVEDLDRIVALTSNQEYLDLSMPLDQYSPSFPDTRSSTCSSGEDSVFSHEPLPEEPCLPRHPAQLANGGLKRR

A549 = assay: Antiproliferative activity against human A549 cells assessed as growth inhibition after 48 hrs by MTT assay; assay type: functional, cell-based; settings: A549, 48 h
[4] = Antiproliferative activity against human SMMC7721 cells assessed as growth inhibition after 48 hrs by MTT assay; assay type: functional, cell-based; settings: SMMC-7721, 48 h

Chain of Epidermal growth factor receptor (P00533 whole entry): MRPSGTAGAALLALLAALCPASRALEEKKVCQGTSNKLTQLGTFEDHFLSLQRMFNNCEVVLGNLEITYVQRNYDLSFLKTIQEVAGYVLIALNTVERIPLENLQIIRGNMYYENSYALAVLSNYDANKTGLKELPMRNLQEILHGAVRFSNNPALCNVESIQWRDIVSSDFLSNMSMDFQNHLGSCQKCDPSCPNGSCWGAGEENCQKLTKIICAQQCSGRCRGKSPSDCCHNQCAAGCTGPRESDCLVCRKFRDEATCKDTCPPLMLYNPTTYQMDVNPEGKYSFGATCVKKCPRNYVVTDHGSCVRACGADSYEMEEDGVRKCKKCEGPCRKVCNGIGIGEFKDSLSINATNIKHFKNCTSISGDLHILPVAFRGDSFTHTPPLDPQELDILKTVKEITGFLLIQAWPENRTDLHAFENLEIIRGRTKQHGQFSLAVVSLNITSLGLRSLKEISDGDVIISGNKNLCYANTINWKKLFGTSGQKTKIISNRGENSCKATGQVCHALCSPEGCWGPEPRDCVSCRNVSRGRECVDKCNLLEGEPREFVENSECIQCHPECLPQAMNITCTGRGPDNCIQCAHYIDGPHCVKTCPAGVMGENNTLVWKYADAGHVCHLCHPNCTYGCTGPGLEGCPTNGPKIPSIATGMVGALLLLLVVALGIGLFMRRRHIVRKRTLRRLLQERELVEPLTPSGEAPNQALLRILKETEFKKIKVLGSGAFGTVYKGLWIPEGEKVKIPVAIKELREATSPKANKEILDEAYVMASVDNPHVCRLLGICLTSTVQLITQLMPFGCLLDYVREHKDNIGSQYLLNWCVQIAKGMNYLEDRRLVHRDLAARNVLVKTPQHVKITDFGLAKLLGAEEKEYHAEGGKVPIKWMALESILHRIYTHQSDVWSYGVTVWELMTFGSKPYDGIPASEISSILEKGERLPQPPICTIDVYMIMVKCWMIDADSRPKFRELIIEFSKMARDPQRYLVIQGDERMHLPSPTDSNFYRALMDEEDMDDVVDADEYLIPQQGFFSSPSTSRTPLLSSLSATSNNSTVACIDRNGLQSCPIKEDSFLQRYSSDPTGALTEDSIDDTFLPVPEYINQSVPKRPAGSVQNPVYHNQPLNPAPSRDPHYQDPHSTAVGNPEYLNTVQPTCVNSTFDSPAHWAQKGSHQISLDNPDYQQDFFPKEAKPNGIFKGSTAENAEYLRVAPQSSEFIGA

Row | IC50 [1] [µM] | IC50 [2] [µM] | IC50 [3] [µM] | IC50 (A549) [µM] | Compound | IC50 [4] [µM]
1 | 0.131 | 0.213 | 0.272 |  | COc1cc(NC(=O)Nc2ccncc2)cc(-c2cccnc2)c1OC | 73.6
2 | 0.29 | 0.492 | > 0.5 | 17.3 | COc1cc(NC(=O)Nc2ccncc2)cc(-c2cncnc2)c1OC | 12.9
3 | 0.018 | 0.0222 | 0.0326 | 3.75 | O=C(Nc1ccncc1)Nc1cc(-c2cncnc2)ccc1OC(F)(F)F | 3.99
4 | 0.455 | > 0.5 | > 0.5 |  | COc1ccc(-c2cc(NC(=O)Nc3ccncc3)cc(OC)c2OC)cn1 | 
5 | 0.0488 | > 0.5 | 0.0693 | 13.5 | COc1cc(NC(=O)Nc2ccccn2)cc(-c2cccnc2)c1OC | 22.4
6 | 0.317 | 0.291 | 0.334 | 106 | COc1cc(NC(=O)Nc2nccs2)cc(-c2cccnc2)c1OC | 
7 | 0.0248 | 0.0332 | 0.0565 | 14.1 | COc1cc(NC(=O)Nc2ccccn2)cc(-c2c[nH]cn2)c1OC | 21.2
8 | 0.0148 | 0.0216 | 0.0282 | 2.42 | O=C(Nc1ccncc1)Nc1cc(-c2cncnc2)cc(C(F)(F)F)c1 | 3.73
9 | 0.0666 | 0.0794 | > 0.5 | 24.7 | COc1ccc(-c2cc(NC(=O)Nc3ccccn3)cc(OC)c2OC)cn1 | 32.9
10 | > 0.5 | 0.364 | > 0.5 | 276 | COc1ccc(-c2cc(NC(=O)Nc3ccncc3)cc(C(F)(F)F)c2)cn1 | > 300

Further lines, the compound ahead of its results:

Row | Compound | IC50 [1] [µM] | IC50 [2] [µM] | IC50 [3] [µM] | IC50 (A549) [µM] | IC50 [4] [µM]
11 | Cn1cnc(-c2cc(NC(=O)Nc3ccncc3)cc(C(F)(F)F)c2)c1 | 0.166 | 0.223 | 0.261 | 39.4 | 235
12 | COc1ccc(-c2ccc(OC(F)(F)F)c(NC(=O)Nc3ccccn3)c2)cn1 | > 0.5 | > 0.5 | > 0.5 | 177 | 90.4
13 | COc1ccc(-c2ccc(OC(F)(F)F)c(NC(=O)Nc3nccs3)c2)cn1 | 0.495 | 0.39 | > 0.5 | 35 | 44.1
14 | O=C(Nc1nccs1)Nc1cc(-c2cccnc2)ccc1OC(F)(F)F | 0.121 | 0.107 | 0.0961 |  | 12.5
15 | O=C(Nc1ccccn1)Nc1cc(-c2cncnc2)ccc1OC(F)(F)F | 0.0266 | 0.0522 | 0.0813 | 15.2 | 21.6
16 | O=C(Nc1cc(-c2cccnc2)cc(C(F)(F)F)c1)Nc1nccs1 | 0.0782 | 0.0574 | 0.0992 | 92.1 | 68.2
17 | O=C(Nc1ccncc1)Nc1cc(-c2cccnc2)cc(C(F)(F)F)c1 | 0.189 | 0.093 | 0.138 | > 300 | 
18 | O=C(Nc1ccncc1)Nc1cc(-c2cccnc2)ccc1OC(F)(F)F | 0.0972 | 0.128 | 0.104 | 39.8 | 42.8
19 | COc1cc(NC(=O)Nc2nccs2)cc(-c2cn(C)cn2)c1OC | 0.362 | 0.42 | > 0.5 |  | 
20 | CNC(=O)c1cc(Oc2ccc(NC(=O)Nc3ccc(Cl)c(C(F)(F)F)c3)cc2)ccn1 [SORAFENIB] |  |  |  | 2.02 | 1.58
21 | Cn1cnc(-c2cc(NC(=O)Nc3nccs3)cc(C(F)(F)F)c2)c1 | 0.311 | 0.285 | > 0.5 | 163 | 
22 | COc1ccc(-c2ccc(OC(F)(F)F)c(NC(=O)Nc3ccncc3)c2)cn1 | 0.103 | > 0.5 | 0.0998 | > 300 | 
23 | O=C(Nc1cc(-c2cncnc2)cc(C(F)(F)F)c1)Nc1nccs1 | 0.0718 | 0.0867 | > 0.5 | 18.3 | 29.7
24 | COc1ccc(-c2cc(NC(=O)Nc3nccs3)cc(C(F)(F)F)c2)cn1 | 0.477 | > 0.5 | > 0.5 |  | 36.2
25 | O=C(Nc1ccccn1)Nc1cc(-c2cccnc2)ccc1OC(F)(F)F |  | 0.0867 | 0.13 | 19 | 35.6
26 | O=C(Nc1nccs1)Nc1cc(-c2cncnc2)ccc1OC(F)(F)F | 0.0717 | 0.0686 | 0.154 | 17.6 | 9.35
27 | Cn1cnc(-c2ccc(OC(F)(F)F)c(NC(=O)Nc3ccncc3)c2)c1 | 0.0948 | 0.355 | 0.371 | 79.3 | > 300
